Experimental data as given in PMC5218480 (PLoS ONE, 2017).

Test system: MV-4-11 cells
Assay: Gene expression microarray analysis (Affymetrix PrimeView) and GSEA
Assay type: cell-based, human
Set-up: RFU PODN (11730768_x_at) / Fold change /veh PODN (11730768_x_at) / RFU LINC00158 (11744669_a_at) / Fold change /veh LINC00158 (11744669_a_at) / RFU DUSP10 (11751237_a_at) / Fold change /veh DUSP10 (11751237_a_at) / RFU ID3 (11757404_x_at) / Fold change /veh ID3 (11757404_x_at) / RFU PLEKHG5 (11737974_s_at) / Fold change /veh PLEKHG5 (11737974_s_at) / RFU LRRC4B (11730491_at) / Fold change /veh LRRC4B (11730491_at) / RFU GIMAP4 (11747438_a_at) / Fold change /veh GIMAP4 (11747438_a_at) / RFU KRT8 (11758183_x_at) / Fold change /veh KRT8 (11758183_x_at) / RFU CNN1 (11734310_a_at) / Fold change /veh CNN1 (11734310_a_at) / RFU VPS37D (11726825_at) / Fold change /veh VPS37D (11726825_at) / RFU C10orf10 (11716522_x_at) / Fold change /veh C10orf10 (11716522_x_at) / RFU KIR2DL2 /// KIR2DL4 /// KIR2DL5A /// KIR2DL5B /// KIR2DS1 /// KIR2DS2 /// KIR2DS3 /// KIR2DS4 /// KIR3DL3 /// KIR3DL3 /// KIR3DS1 (11738374_at) / Fold change /veh KIR2DL2 /// KIR2DL4 /// KIR2DL5A /// KIR2DL5B /// KIR2DS1 /// KIR2DS2 /// KIR2DS3 /// KIR2DS4 /// KIR3DL3 /// KIR3DL3 /// KIR3DS1 (11738374_at) / RFU C1QL1 (11718748_at) / Fold change /veh C1QL1 (11718748_at) / RFU TMPRSS4 (11747572_a_at) / Fold change /veh TMPRSS4 (11747572_a_at) / RFU HAMP (11756126_x_at) / Fold change /veh HAMP (11756126_x_at) / RFU RNFT2 (11725882_a_at) / Fold change /veh RNFT2 (11725882_a_at) / RFU NR4A2 (11747474_a_at) / Fold change /veh NR4A2 (11747474_a_at) / RFU ABCC12 (11746883_a_at) / Fold change /veh ABCC12 (11746883_a_at) / RFU TMEM136 (11760407_x_at) / Fold change /veh TMEM136 (11760407_x_at) / RFU CLDN22 /// WWC2 (11732394_at) / Fold change /veh CLDN22 /// WWC2 (11732394_at) / RFU HLA-DPB1 (11760878_x_at) / Fold change /veh HLA-DPB1 (11760878_x_at) / RFU SPINT1 (11716480_a_at) / Fold change /veh SPINT1 (11716480_a_at) / RFU GAP43 (11754022_s_at) / Fold change /veh GAP43 (11754022_s_at) / RFU A4GNT (11735810_at) / Fold change /veh A4GNT (11735810_at) / RFU PRB3 (11715151_x_at) / Fold change /veh PRB3 (11715151_x_at) / RFU TUBB4B (11761932_at) / Fold change /veh TUBB4B (11761932_at) / RFU CAPN14 (11732068_a_at) / Fold change /veh CAPN14 (11732068_a_at) / RFU TMCC2 (11721928_a_at) / Fold change /veh TMCC2 (11721928_a_at) / RFU IRGQ (11745062_a_at) / Fold change /veh IRGQ (11745062_a_at) / RFU FAM174B (11720279_a_at) / Fold change /veh FAM174B (11720279_a_at) / RFU TMPRSS4 (11748680_a_at) / Fold change /veh TMPRSS4 (11748680_a_at) / RFU FAM212B (11763350_a_at) / Fold change /veh FAM212B (11763350_a_at) / RFU PLEKHG5 (11743358_a_at) / Fold change /veh PLEKHG5 (11743358_a_at) / RFU ZSCAN30 (11745921_a_at) / Fold change /veh ZSCAN30 (11745921_a_at) / RFU CMKLR1 (11741424_a_at) / Fold change /veh CMKLR1 (11741424_a_at) / RFU LOC101060620 /// MAPK8IP1 (11723275_at) / Fold change /veh LOC101060620 /// MAPK8IP1 (11723275_at) / RFU SPTSSB (11747773_x_at) / Fold change /veh SPTSSB (11747773_x_at) / RFU PRSS12 (11739890_at) / Fold change /veh PRSS12 (11739890_at) / RFU BIN1 (11741810_x_at) / Fold change /veh BIN1 (11741810_x_at) / RFU WNT11 (11732464_a_at) / Fold change /veh WNT11 (11732464_a_at) / RFU C10orf10 (11716521_a_at) / Fold change /veh C10orf10 (11716521_a_at) / RFU C5orf56 (11738089_at) / Fold change /veh C5orf56 (11738089_at) / RFU CYB561 (11721691_x_at) / Fold change /veh CYB561 (11721691_x_at) / RFU ANKRD19P (11752326_a_at) / Fold change /veh ANKRD19P (11752326_a_at) / RFU OR2T12 /// OR2T33 /// OR2T8 (11738714_s_at) / Fold change /veh OR2T12 /// OR2T33 /// OR2T8 (11738714_s_at) / RFU VCAN (11748164_a_at) / Fold change /veh VCAN (11748164_a_at) / RFU JSRP1 (11732532_at) / Fold change /veh JSRP1 (11732532_at) / RFU KRTAP10-11 (11738290_x_at) / Fold change /veh KRTAP10-11 (11738290_x_at) / RFU MYO3A (11730013_a_at) / Fold change /veh MYO3A (11730013_a_at) / RFU EBF3 (11725865_a_at) / Fold change /veh EBF3 (11725865_a_at) / RFU CAMK2N1 (11719241_x_at) / Fold change /veh CAMK2N1 (11719241_x_at) / RFU C5orf56 (11738088_a_at) / Fold change /veh C5orf56 (11738088_a_at) / RFU OLFML3 (11715873_a_at) / Fold change /veh OLFML3 (11715873_a_at) / RFU LOC100653217 /// NTM (11731650_a_at) / Fold change /veh LOC100653217 /// NTM (11731650_a_at) / RFU MAPK11 (11762145_a_at) / Fold change /veh MAPK11 (11762145_a_at) / RFU FIZ1 (11724087_x_at) / Fold change /veh FIZ1 (11724087_x_at) / RFU OASL (11726364_x_at) / Fold change /veh OASL (11726364_x_at) / RFU SOX15 (11748057_x_at) / Fold change /veh SOX15 (11748057_x_at) / RFU CD79A (11719716_a_at) / Fold change /veh CD79A (11719716_a_at) / RFU HIST1H1D (11736915_at) / Fold change /veh HIST1H1D (11736915_at) / RFU CASKIN2 (11723855_a_at) / Fold change /veh CASKIN2 (11723855_a_at) / RFU LOC730098 (11760151_x_at) / Fold change /veh LOC730098 (11760151_x_at) / RFU OR4N2 (11742367_at) / Fold change /veh OR4N2 (11742367_at) / RFU PRRT2 (11749266_a_at) / Fold change /veh PRRT2 (11749266_a_at) / RFU SNX32 (11753110_a_at) / Fold change /veh SNX32 (11753110_a_at) / RFU CDHR5 (11726645_a_at) / Fold change /veh CDHR5 (11726645_a_at) / RFU RCAN1 (11760418_a_at) / Fold change /veh RCAN1 (11760418_a_at) / RFU FAM167A (11723789_a_at) / Fold change /veh FAM167A (11723789_a_at) / RFU FAM26E (11764081_at) / Fold change /veh FAM26E (11764081_at) / RFU ISYNA1 (11749810_s_at) / Fold change /veh ISYNA1 (11749810_s_at) / RFU ACY1 (11761880_at) / Fold change /veh ACY1 (11761880_at) / RFU 11764098_at / Fold change /veh 11764098_at / RFU SAMD14 (11745864_x_at) / Fold change /veh SAMD14 (11745864_x_at) / RFU NPB (11741838_a_at) / Fold change /veh NPB (11741838_a_at) / RFU TMPRSS6 (11731388_a_at) / Fold change /veh TMPRSS6 (11731388_a_at) / RFU KRTAP10-2 (11738614_at) / Fold change /veh KRTAP10-2 (11738614_at) / RFU ARHGAP8 /// PRR5-ARHGAP8 (11727945_x_at) / Fold change /veh ARHGAP8 /// PRR5-ARHGAP8 (11727945_x_at) / RFU KRTAP5-7 /// NADSYN1 (11734609_at) / Fold change /veh KRTAP5-7 /// NADSYN1 (11734609_at) / RFU RASL12 (11751679_a_at) / Fold change /veh RASL12 (11751679_a_at) / RFU CDKN2B (11736163_a_at) / Fold change /veh CDKN2B (11736163_a_at) / RFU PRF1 (11729649_at) / Fold change /veh PRF1 (11729649_at) / RFU, ZNF638 /// ZNF638-IT1 / Fold change vs veh, ZNF638 /// ZNF638-IT1 / RFU, PANK3 / Fold change vs veh, PANK3 / RFU, SH3YL1 / Fold change vs veh, SH3YL1 / RFU, ZEB2 / Fold change vs veh, ZEB2 / RFU, NRIP1 / Fold change vs veh, NRIP1 / RFU, PTTG1IP / Fold change vs veh, PTTG1IP / RFU, CAPN2 / Fold change vs veh, CAPN2 / RFU, MED14 / Fold change vs veh, MED14 / RFU, SNORA58 / Fold change vs veh, SNORA58 / RFU, C1orf63 / Fold change vs veh, C1orf63 / RFU, LRRFIP1 / Fold change vs veh, LRRFIP1 / RFU, NDUFAF7 / Fold change vs veh, NDUFAF7 / RFU, SLC12A2 / Fold change vs veh, SLC12A2 / RFU, IBTK / Fold change vs veh, IBTK / RFU, ESF1 / Fold change vs veh, ESF1 / Fold change vs veh, TMEM50B / RFU, TAOK1 / Fold change vs veh, TAOK1 / RFU, ACBD3 / Fold change vs veh, ACBD3 / RFU, TMA16 / Fold change vs veh, TMA16 / RFU, RWDD3 / Fold change vs veh, RWDD3 / RFU, BCAT1 / Fold change vs veh, BCAT1 / RFU, EDEM3 / Fold change vs veh, EDEM3 / RFU, TMEM33 / Fold change vs veh, TMEM33 / RFU, WDR75 / Fold change vs veh, WDR75 / RFU, AHCTF1 / Fold change vs veh, AHCTF1 / RFU, TFRC / Fold change vs veh, TFRC / RFU, ZDHHC17 / Fold change vs veh, ZDHHC17 / RFU, NOM1 / Fold change vs veh, NOM1 / RFU, ARL8B / Fold change vs veh, ARL8B / RFU, ZBTB11 / Fold change vs veh, ZBTB11 / RFU, TAMM41 / Fold change vs veh, TAMM41 / RFU, KIAA1704 /// LOC100996395 / Fold change vs veh, KIAA1704 /// LOC100996395 / RFU, ING1 / Fold change vs veh, ING1 / RFU, TRMT61B / Fold change vs veh, TRMT61B / RFU, FUBP3 / Fold change vs veh, FUBP3 / RFU, TP53 / Fold change vs veh, TP53 / RFU, TNKS2 / Fold change vs veh, TNKS2 / RFU, ZFP14 / Fold change vs veh, ZFP14 / RFU, ACTR2 / Fold change vs veh, ACTR2 / RFU, PPP3R1 / Fold change vs veh, PPP3R1 / RFU, PIK3R1 / Fold change vs veh, PIK3R1 / RFU, HNRNPA1 / Fold change vs veh, HNRNPA1 / RFU, RNF170 / Fold change vs veh, RNF170 / RFU, ZNF28 / Fold change vs veh, ZNF28 / RFU, RNGTT / Fold change vs veh, RNGTT / RFU, OGT / Fold change vs veh, OGT / RFU, BRD1 / Fold change vs veh, BRD1 / RFU, MARS / Fold change vs veh, MARS / RFU, ZNF655 / Fold change vs veh, ZNF655 / RFU, FAHD1 / Fold change vs veh, FAHD1 / RFU, BDP1 / Fold change vs veh, BDP1 / RFU, LRRCC1 / Fold change vs veh, LRRCC1 / RFU, ARID1A / Fold change vs veh, ARID1A / RFU, ZNF146 / Fold change vs veh, ZNF146 / RFU, ZNF330 / Fold change vs veh, ZNF330 / RFU, GPN3 / Fold change vs veh, GPN3 / RFU, C9orf123 / Fold change vs veh, C9orf123 / RFU, N4BP2L2 / Fold change vs veh, N4BP2L2 / RFU, ARFIP1 / Fold change vs veh, ARFIP1 / RFU, FAM179B / Fold change vs veh, FAM179B / RFU, BCL10 / Fold change vs veh, BCL10 / RFU, UHRF1BP1L / Fold change vs veh, UHRF1BP1L / RFU, BET1 / Fold change vs veh, BET1 / RFU, CNOT2 / Fold change vs veh, CNOT2 / RFU, ZNF268 / Fold change vs veh, ZNF268 / Fold change vs veh, ZNF507 / RFU, DGCR2 / Fold change vs veh, DGCR2 / RFU, WDSUB1 / Fold change vs veh, WDSUB1 / Fold change vs veh, HSP90B1 /// MIR3652 / RFU, ADSS / Fold change vs veh, ADSS / RFU, GK / Fold change vs veh, GK / RFU, ZNF148 / Fold change vs veh, ZNF148 / RFU, TAF9 / Fold change vs veh, TAF9 / RFU, SLC1A5 / Fold change vs veh, SLC1A5 / RFU, SLMO2 / Fold change vs veh, SLMO2 / RFU, ABCC4 / Fold change vs veh, ABCC4 / RFU, LOC101060439 /// RAP1B / Fold change vs veh, LOC101060439 /// RAP1B / RFU, RFX7 / Fold change vs veh, RFX7 / RFU, GTPBP10 / Fold change vs veh, GTPBP10 / RFU, CNEP1R1 / Fold change vs veh, CNEP1R1 / RFU, BIVM-ERCC5 /// ERCC5 / Fold change vs veh, BIVM-ERCC5 /// ERCC5 / RFU, ILF3 / Fold change vs veh, ILF3 / RFU 11762660_at / Fold change /veh 11762660_at / RFU VCAN (11757783_s_at) / Fold change /veh VCAN (11757783_s_at) / RFU DDX43 (11728927_at) / Fold change /veh DDX43 (11728927_at) / RFU KRT8 (11758188_x_at) / Fold change /veh KRT8 (11758188_x_at) / RFU NKD1 (11759106_at) / Fold change /veh NKD1 (11759106_at) / RFU SRD5A1 (11742802_a_at) / Fold change /veh SRD5A1 (11742802_a_at) / RFU TPSAB1 /// TPSB2 (11721975_s_at) / Fold change /veh TPSAB1 /// TPSB2 (11721975_s_at) / RFU GSTM3 (11746129_a_at) / Fold change /veh GSTM3 (11746129_a_at) / RFU IL23R (11737362_x_at) / Fold change /veh IL23R (11737362_x_at) / RFU TMEM51 (11727254_a_at) / Fold change /veh TMEM51 (11727254_a_at) / RFU PIWIL2 (11732686_x_at) / Fold change /veh PIWIL2 (11732686_x_at) / RFU ORM1 (11744905_x_at) / Fold change /veh ORM1 (11744905_x_at) / RFU CCDC152 (11743942_at) / Fold change /veh CCDC152 (11743942_at) / RFU ECM1 (11717891_a_at) / Fold change /veh ECM1 (11717891_a_at) / RFU IL23R (11748794_a_at) / Fold change /veh IL23R (11748794_a_at) / RFU TNFAIP8L3 (11732012_x_at) / Fold change /veh TNFAIP8L3 (11732012_x_at) / RFU MBOAT4 (11741988_at) / Fold change /veh MBOAT4 (11741988_at) / RFU 11764193_at / Fold change /veh 11764193_at / RFU TMEM53 (11763286_at) / Fold change /veh TMEM53 (11763286_at) / RFU MAGEB2 (11727129_at) / Fold change /veh MAGEB2 (11727129_at) / RFU TMEM200A (11744735_a_at) / Fold change /veh TMEM200A (11744735_a_at) / RFU CCDC152 (11751479_a_at) / Fold change /veh CCDC152 (11751479_a_at) / RFU FAM211A (11726209_a_at) / Fold change /veh FAM211A (11726209_a_at) / RFU RGS16 (11746705_a_at) / Fold change /veh RGS16 (11746705_a_at) / RFU VCAN (11755009_s_at) / Fold change /veh VCAN (11755009_s_at) / RFU RHOB (11743442_s_at) / Fold change /veh RHOB (11743442_s_at) / RFU RGS16 (11720943_a_at) / Fold change /veh RGS16 (11720943_a_at) / RFU RGS16 (11720944_at) / Fold change /veh RGS16 (11720944_at) / RFU, VPS4B / Fold change vs veh, VPS4B / RFU, CREB1 / Fold change vs veh, CREB1 / RFU, DNAJC13 / Fold change vs veh, DNAJC13 / RFU, GNAQ / Fold change vs veh, GNAQ / RFU, CDK5R1 / Fold change vs veh, CDK5R1 / RFU, ZRANB3 / Fold change vs veh, ZRANB3 / RFU, CUL4A / Fold change vs veh, CUL4A / RFU, CCNY / Fold change vs veh, CCNY / RFU, UFL1 / Fold change vs veh, UFL1 / RFU, COG3 / Fold change vs veh, COG3 / RFU, DIAPH2 / Fold change vs veh, DIAPH2 / RFU, SKA2 / Fold change vs veh, SKA2 / RFU, AFF3 / Fold change vs veh, AFF3 / RFU, LMF1 / Fold change vs veh, LMF1 / RFU, IPO11 / Fold change vs veh, IPO11 / RFU, DFFB / Fold change vs veh, DFFB / RFU, FOXP1 / Fold change vs veh, FOXP1 / RFU, CARD8 / Fold change vs veh, CARD8 / RFU, STRN3 / Fold change vs veh, STRN3 / RFU, ADK / Fold change vs veh, ADK / RFU, RASSF2 / Fold change vs veh, RASSF2 / RFU, WIPF1 / Fold change vs veh, WIPF1 / RFU, LARP1B / Fold change vs veh, LARP1B / RFU, RASA1 / Fold change vs veh, RASA1 / RFU, RB1 / Fold change vs veh, RB1 / RFU, PPFIA1 / Fold change vs veh, PPFIA1 / RFU, MAT2A / Fold change vs veh, MAT2A / RFU, CCT5 / Fold change vs veh, CCT5 / RFU, WDR92 / Fold change vs veh, WDR92 / RFU, CUX1 / Fold change vs veh, CUX1 / RFU, TTC7A / Fold change vs veh, TTC7A / RFU, TMEM135 / Fold change vs veh, TMEM135 / RFU, DEPTOR / Fold change vs veh, DEPTOR / RFU, CPM / Fold change vs veh, CPM / RFU, DNAJB6 / Fold change vs veh, DNAJB6 / RFU, CACNA2D3 / Fold change vs veh, CACNA2D3 / RFU, DTX4 / Fold change vs veh, DTX4 / RFU, TFCP2 / Fold change vs veh, TFCP2 / RFU, GMCL1 /// GMCL1P1 / Fold change vs veh, GMCL1 /// GMCL1P1 / RFU, AEBP2 / Fold change vs veh, AEBP2 / RFU, SNHG1 /// SNORD22 /// SNORD25 /// SNORD26 /// SNORD27 /// SNORD28 /// SNORD29 /// SNORD31 / Fold change vs veh, SNHG1 /// SNORD22 /// SNORD25 /// SNORD26 /// SNORD27 /// SNORD28 /// SNORD29 /// SNORD31 / Fold change (Aza/veh), C12orf56 (ProbeSet 11735607_a_at) / Fold change (ACY-1035/veh), C12orf56 (ProbeSet 11735607_a_at) / Fold change (Aza/veh), FGFR1OP (ProbeSet 11751329_s_at) / Fold change (ACY-1035/veh), FGFR1OP (ProbeSet 11751329_s_at) / Fold change (Aza/veh), VPS36 (ProbeSet 11739960_a_at) / Fold change (ACY-1035/veh), VPS36 (ProbeSet 11739960_a_at) / RFU SYPL1 (11715823_x_at) / Fold change /veh SYPL1 (11715823_x_at) / RFU IGFBP7 (11715501_s_at) / Fold change /veh IGFBP7 (11715501_s_at) / RFU REEP3 (11722064_at) / Fold change /veh REEP3 (11722064_at) / RFU IGLL1 (11728026_x_at) / Fold change /veh IGLL1 (11728026_x_at): dose or concentration left out as unconfirmed
Settings: ProbeSet 11749477_a_at; LIST B

In the case of `Nc1ncn([C@@H]2O[C@H](CO)[C@@H](O)[C@H]2O)c(=O)n1` [azacitidine], the “Fold change vs veh, EDEM3” value is reported as 0.89.
